Measurements as given in patent US20250275948A1, “(N-[4-(2,3-DIHYDRO-1H-INDEN-5-YL)-1,3-THIAZOL-2-YL]-2-[4-METHYL-4-(NAPHTHALEN-2-YL)-2,5-DIOXOIMIDAZOLIDIN-1-YL]ACETAMIDE AS STABILIZER OF CLOCK:BMAL1 INTERACTION FOR THE TREATMENT OF CIRCADIAN RHYTHM DISEASES AND DISORDERS” (KOC UNIVERSITESI, priority 2022, published 2025).

What was measured:
[1] = biological target: T1, CLOCK:BMAL1 complex (Homo sapiens, UniProt O00327+O15516); assay: Pull-down assay with biotinylated-CLK95; format: binding; settings: 20 μM bCLK95 bait, 200 μM CLK95 competitor; HEK 293T and U2OS lysates
T1 construct: expressed in transfected cells; host or cells: HEK 293T
Description: To perform pull-down assay HEK 293T cells were transiently transfected with either 10 μg pCMV-Sport6-CLOCK or 10 μg pCMV-Sport6-Bmal1 plasmids. First, cells were seeded in a 10 cm cell culture dish at a density which will give ˜70-80% confluency next day. Then cells were transfected with 10 μg of the appropriate plasmid using 30 μL PEI in 1 mL DMEM. Cells were harvested 24 hours post-transfection and divided into four 1.5 mL centrifuge tubes. The conditions that were employed to probe the binding of the molecule to proteins contained a) only CLOCK overexpressed, b) only BMAL1 overexpressed and c) CLOCK-BMAL1 overexpressed mixtures. Pellet for each condition was lysed with 500 μL Lysis Buffer (50 mM Tris-HCl PH 7.4, 2 mM EDTA, 1 mM MgCl2, 0.2% NP-40, 1 mM Na3VO4, 1 mM NaF, 1×PIC) and incubated on ice for 20 minutes. Then samples were centrifuged at 7000×g for 10 minutes at 4° C. The supernatants of the CLOCK and BMAL1 lysates were mixed at 1:1 ratio. Following this step, collected lysate mixture was mixed with 2× binding buffer (100 mM Tris-HCl pH 7.4, 300 mM NaCl, 0.2% NP-40, 2 mM Na3VO4, 2 mM NaF, 2×PIC) at 1:1 ratio. […]

[2] = test system: CLOCK and BMAL1; assay: Effect on core clock protein levels (western blot), U2OS Bmal1-dLuc cells; format: cell-based, human; settings: unsynchronized U2OS Bmal1:dLuc cells, 24 hours
Description: The effect of CLK95 on core-clock proteins was assessed both on synchronized and unsynchronized U2OS Bmal1-dLuc cells. Cells were seeded into 6 well-plates with a density of 45×10^4 cell/well and incubated at 37° C. under 5% CO2 for 16 hours. For unsynchronized cells, they were treated with appropriate amounts CLK95 (final 0.25% DMSO) and further incubated for 24 hours. For synchronized cells, cell media was exchanged with 0.1 μM Dexamethasone containing DMEM. After synchronization, cells were subjected to the CLK95 (final 0.25% DMSO). After 24 hours of incubation, cells were harvested with 6 hours intervals for 7 time points (24H-60H). Then harvested cells were lysed with 90 μL RIPA buffer (50 mM Tris-HCl pH 7.4, 150 mM NaCl, 1% Triton x-100, 0.1% SDS, 1×PIC) and left for an incubation on ice for 30 minutes. Following, samples were centrifugated at 15000×g for 20 minutes at 4° C. After boiling samples with Laemmli buffer for 7 minutes at 95° C., 10 μg of protein was loaded for each sample to 10% SDS-polyacrylamide gel. For Western blot analysis following antibodies used to determine the level of core clock proteins: anti-CLOCK (Bethyl, A302-618A), anti-BMAL1 (Santa Cruz Biotech., SC-365645), anti-PER2 (Proteintech, 67513-1-Ig), anti-CRY1 (Bethyl, A302-614A), and anti-β-Actin (Cell Signaling, 8H10D10) antibodies.

[3] = biological target: T2, CLOCK and BMAL1 (Mus musculus, UniProt O08785+Q9WTL8); assay: Subcellular fractionation from mice liver; design: species or system mice (C57BL/6J); settings: in vivo and in vitro
T2 construct: from tissue; host or cells: liver of C57BL/6J mice
Description: 8-12 weeks old male C57BL/6J mice were used for in vivo studies. Mice weighing 24-28 grams were subjected to a single dose of CLK95 (50 mg/kg) or vehicle (DMSO:Cremophor EL: 0.9% NaCl; 2.5:15:82.5, v/v/v) intraperitoneally. Animals which were obtained from Koç University Animal Research Facility were fed ad libitum. Four hours after treatment, animals were sacrificed, and the internal organs were harvested.
Subcellular fractionation from mice liver was performed by using 10 mg tissue sample. Buffers that were used in this process are same as in given in section 3.13. First, the tissue was washed in 500 μL ice-cold 1×PBS buffer and then resuspended in 300 μL cytosolic lysis buffer by pipetting and incubated on ice for 10 min. Samples were centrifuged at 660×g for 5 minutes (4° C.) to get rid of cell debris. While supernatants were collected and transferred to new microcentrifuge tubes for processing later to give cytosolic fractions, pellets containing intact nucleus were washed 3 times with 300 μL cytosolic lysis buffer. At the end of each wash, suspensions were centrifugated for 5 minutes at 660×g (4° C.). […] Samples were analysed with Western blot as described earlier using anti-CLOCK (Bethyl, A302-618A), anti-BMAL1 (Santa Cruz Biotech., SC-365645), anti-CRY1 (Bethyl, A302-614A), anti-Histone H3 (Abcam, ab1791), and anti-αTUBULIN (Sigma-Aldrich, T9026) antibodies were used.

T1 sequence (O15516 whole entry): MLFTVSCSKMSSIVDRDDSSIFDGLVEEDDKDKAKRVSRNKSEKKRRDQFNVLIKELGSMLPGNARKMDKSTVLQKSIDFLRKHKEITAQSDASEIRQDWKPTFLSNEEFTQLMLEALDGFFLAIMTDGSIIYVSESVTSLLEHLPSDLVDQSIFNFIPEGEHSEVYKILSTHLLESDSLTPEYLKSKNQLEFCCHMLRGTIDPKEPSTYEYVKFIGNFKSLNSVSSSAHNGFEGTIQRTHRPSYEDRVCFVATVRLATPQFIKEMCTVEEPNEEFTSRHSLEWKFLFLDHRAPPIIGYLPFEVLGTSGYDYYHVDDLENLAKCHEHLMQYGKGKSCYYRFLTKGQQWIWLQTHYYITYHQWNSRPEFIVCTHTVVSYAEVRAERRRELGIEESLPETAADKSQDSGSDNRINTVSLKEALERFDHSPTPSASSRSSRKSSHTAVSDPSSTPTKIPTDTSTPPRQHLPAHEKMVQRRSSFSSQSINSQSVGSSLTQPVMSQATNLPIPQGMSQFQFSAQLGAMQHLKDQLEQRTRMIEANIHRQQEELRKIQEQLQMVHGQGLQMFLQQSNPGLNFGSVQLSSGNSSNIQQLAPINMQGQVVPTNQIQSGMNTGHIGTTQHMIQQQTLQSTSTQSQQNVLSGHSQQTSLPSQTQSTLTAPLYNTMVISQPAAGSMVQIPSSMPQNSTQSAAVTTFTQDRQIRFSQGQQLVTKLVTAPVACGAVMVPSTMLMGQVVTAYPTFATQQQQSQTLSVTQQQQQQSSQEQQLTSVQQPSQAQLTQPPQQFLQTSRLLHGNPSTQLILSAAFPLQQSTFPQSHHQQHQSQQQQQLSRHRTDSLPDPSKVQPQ
T1 sequence (O00327 whole entry): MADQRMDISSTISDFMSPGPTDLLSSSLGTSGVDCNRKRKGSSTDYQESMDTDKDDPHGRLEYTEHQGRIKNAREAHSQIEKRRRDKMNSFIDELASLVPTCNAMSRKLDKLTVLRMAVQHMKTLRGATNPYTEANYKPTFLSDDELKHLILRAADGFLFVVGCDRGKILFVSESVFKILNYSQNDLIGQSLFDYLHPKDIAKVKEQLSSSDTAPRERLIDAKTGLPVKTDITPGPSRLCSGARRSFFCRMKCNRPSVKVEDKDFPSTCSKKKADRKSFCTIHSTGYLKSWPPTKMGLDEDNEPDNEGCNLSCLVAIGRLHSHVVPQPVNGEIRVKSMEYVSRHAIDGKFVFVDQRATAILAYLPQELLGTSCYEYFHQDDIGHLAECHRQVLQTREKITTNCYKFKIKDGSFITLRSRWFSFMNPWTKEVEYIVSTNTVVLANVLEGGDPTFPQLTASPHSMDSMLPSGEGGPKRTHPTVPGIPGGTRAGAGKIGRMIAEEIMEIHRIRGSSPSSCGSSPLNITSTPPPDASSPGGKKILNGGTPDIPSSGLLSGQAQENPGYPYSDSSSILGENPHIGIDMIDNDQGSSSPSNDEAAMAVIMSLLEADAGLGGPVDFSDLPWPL

**Q.** How did the binding in pull-down [1] turn out when CC1(c2ccc3ccccc3c2)NC(=O)N(CC(=O)Nc2nc(-c3ccc4c(c3)CCC4)cs2)C1=O (stereo not drawn) [CLK95] was run?
**A.** The binding in pull-down was “specifically binding to CLOCK:BMAL1 complex”.

**Q.** What about the “CLOCK and BMAL1 protein levels” value [2] of the same compound?
**A.** Its value is “increased”.

**Q.** What about the “translocation of CLOCK and BMAL1 into the nucleus” value [3] of the same compound?
**A.** The value was “interfering with the translocation of CLOCK and BMAL1 into the nucleus both in vivo and in vitro”.
